Measured values: US7514529B2, “Peptide mimotopes of lipooligosaccharide from nontypeable Haemophilus influenzae as vaccines” (The United States of America as represented by the …, priority 2003, dated 2009)

Test system: target rabbit anti-LOS antibody
Assay: Peptide ELISA (NucleoLink strips): synthetic peptides binding the target anti-LOS antibody
Details: for Binding reactivity (OD405): 5 μg peptide coupled to strip, 0.4 μg/well target antibody, average of duplicates; for Binding reactivity of synthetic peptides to target anti-LOS antibody (in words): peptide-coated ELISA
Protocol: Four peptides were synthesized with a spacer (GGGS) at each C-terminus (Genemed Synthesis, Inc., San Francisco, Calif.). Binding reactivity of the synthetic peptides to the target anti-LOS antibody was tested with a peptide ELISA using Nunc NucleoLink™ Strips (Fisher Scientific, Pittsburgh, Pa.). Following the instructions of the product with modifications, the strips were coated covalently with its amino groups to the C-terminal carboxyl groups of the synthetic peptides by a coupling reagent, [1-Ethyl-3-(3-dimethylaminopropyl) carbodiimide HCl] (EDC, Pierce). Briefly, peptides and 0.1 M 1-methyl-imidazole (Meim) (Sigma-Aldrich) at pH 7 were pre-cooled on ice, and a 100 μl of individual peptide solution with 5 μg of peptide in 10 mM MeIm was prepared in a well of strips on ice. This peptide solution (75 μl) was mixed with 25 μl of freshly prepared 0.2 M EDC in 10 mM MeIm in another well of the strips. The strips were sealed and incubated at 50° C. for 5 h. After removing the reaction mixture, the strips were soaked with washing buffer (freshly prepared 0.25% SDS in 0.4 N NaOH and warmed at 50° C.) for 5 min and emptied. This step was performed for three times, followed by another three washings without the 5-min soaking. After removing the washing buffer, the strips was washed thoroughly with deionized water. The following steps were the same as described in the LOS ELISA (Gu et al. 1996 Infect Immun 64:4047). After blocking with 1% BSA in PBS, the target anti-LOS antibody was added in the amount of 0.4 μg/well followed by a goat anti-rabbit IgG alkaline phosphatase conjugate. The binding reactivity of the synthetic peptides to the target anti-LOS antibody was evaluated by OD405 values at 30 min after adding a substrate.

| Sequence | Binding reactivity (OD405) | Binding reactivity of synthetic peptides to target anti-LOS antibody (in words) |
| --- | --- | --- |
| TLAHHKKPWILR [Peptide 5, control peptide from an unrelated clone, reference compound] | 0.33 | – |
| NMMRFTSQPPNN [Peptide 1] | 0.40 | did not show good antigenic mimic of the LOS |
| NMMNYIMDPRTH [Peptide 2] | 2.52 | higher binding reactivity |
| NMMKYISPPIFL [Peptide 3] | 1.11 | higher binding reactivity |
| NMMRFTELSTPS [Peptide 4] | 0.99 | higher binding reactivity |
